Results from patent publication US20020156325A1, “Asymmetric beta-ketoiminate ligand compound, preparation method thereof, and organometal percursor comprising the same” (priority 2001, published 2002).

Assay: Thermal gravimetric analysis at atmospheric pressure
Format: physicochemical

Row | solid residue left after vaporization or decomposition | temperature at which the metal complex was vaporized or decomposed | residue left after vaporization or decomposition (in words) (at 290° C.) | Substance
1 | about 12% | about 380 °C | – | Ti[CH3COCHCN(CH2CH2OH)2CH2CH3]2 [Example 6]
2 | – | 290 °C | little residue | Ti [CH3COCHCNH (CH2CH (CH3) OH) CH2CH3]2 [Example 4]
3 | 7% | about 330 °C | – | Ti[CH3COCHCNH(CH2CH2OH)CH2CH3]2 [Example 5]
